Measurements taken from patent US6500825B2, “Substituted 2-aminoacetamides and the use thereof” (Euro-Celtique S.A., priority 1997, dated 2002).

Tests used:
[1] = tested on: maximal electroshock-induced seizures (MES); test: Maximal electroshock-induced seizures (MES) iv in mouse; assay type: in vivo; details: administered iv 10 min before the test, tonic hindlimb extensor response
Method: The ability of selected 2-methylpropanamide derivatives to block maximal electroshock-induced seizures (MES) was determined by the following procedure. Seizures were induced by application of current (50 mA, 60 pulses/sec, 0.8 msec pulse width, 1 sec duration, D.C.) using a Ugo Basile ECT device (model 7801). Mice were restrained by gripping the loose skin on their dorsal surface and saline-coated corneal electrodes were held lightly against the two cornea. […] A tonic seizure was defined as a hindlimb extension in excess of 90 degrees from plane of the body. The 2-methylpropanamides tested were administered iv to mice 10 min before the test procedure.

[2] = tested on: voltage-sensitive Na+ channels; test: Electrophysiological assay: patch-clamp recordings of voltage-sensitive Na+ currents in acutely dissociated rat hippocampal neurons; assay type: cell-based
Method: Electrophysiological Assay
Cell preparation: Acute cultures of rat hippocamnpal neurons were prepared daily using a modification of procedures described previously (Kuo and Bean, Mol. Pharm. 46:716-725 (1994)). Briefly, hippocampi were isolated from 3-11 day old rat pup brains (Sprague-Dawley; Charles River) and were sectioned, by hand, into 0.5-1 mm thick transyerse slices (Whittemore and Koerner, Eur. J. Pharm. 192:435-438 (1991)). Slices were incubated for at least 30 min at room temperature (20-24° C.) in an oxygenated medium (124 mM NaCl, 3.3 mM KCl, 2.4 mM MgSO4, 2.5 mM CaCl2, 1.2 mM KH2PO4, 26 mM NaHCO3, pH=7.4) continuously bubbled with 5% CO2/95% O2. Prior to recording, 4-5 slices were transferred to an oxygenated dissociation medium (82 mM NaSO4, 30 mM K2SO4, 3 mM MgCl2, 2 mM HEPES, 26 mM NaHCO3, 0.001% phenol red, pH=7.4) containing 3 mg/mL protease XXIII (Sigma, St. Louis, Mo.) and incubated for 10-15 min at 37° C., while continuously bubbling with 5% CO2/95% O2. Enzymatic digestion was terminated by transferring the slices to dissociation medium without bicarbonate, supplemented with 1 mg/mL bovine serum albumin and 1 mg/mL trypsin inhibitor (Sigma, St. Louis, Mo.). Slices were then transferred to a 35 mm culture dish containing dissociation medium without bicarbonate, and triturized with a fire-polished glass Pasteur pipette to release single cells. […]
Patch-clamp recordings of voltage-sensitive Na^+ currents: Whole-cell voltage-clamp recordings were made using conventional patch-clamp technique (Hamill et al., Pfluegers Arch. 391:85-100 (1981)) with an Axopatch 200A amplifier (Axon Instruments, Foster City, Calif.). […] Currents were recorded at room temperature (22-25° C.), filtered at 5 kHz with 4-pole Bessel filter, digitized at 20-50-μs intervals, and stored using Digidata 1200 analog/digital interface with Pclamp6/Clampex software (Axon Instruments). […] The inhibitory potency of drugs was assessed by measuring reductions in the peak amplitude of […] currents induced by increasing concentrations of compounds tested. […]

Row | melting point [°C] | Kd ([2]; inactivated Na+ channels, acutely dissociated rat hippocampal neurons, read-out: apparent antagonist dissociation constant (Kd) for inactivated Na+ channels) [nM] | SMILES | iv MES activity (number protected/number screened) [1] | inhibition of voltage-gated Na+ currents ([2]; acutely dissociated rat hippocampal neurons) | effect on Na+ currents activated from a holding membrane voltage of −100 mV ([2]; concentrations between 0.1-10 μM, holding voltage −100 mV)
1 | 81 to 83 | – | CC(C)(NCc1ccc(Oc2ccc3c(c2)CCC3)cc1)C(N)=O [Example 5-indanoxy, 2-(4-(5-Indanoxy)benzylamino)-2-methylpropanamide] | 1/8 | – | –
2 | – | – | CC(C)(NCc1ccc(Oc2ccc3c(c2)OCO3)cc1)C(N)=O [3,4-methylenedioxyphenoxy, 2-(4-(3,4-Methylenedioxyphenoxy)benzylamino)-2-methyl-propanamide] | 8/8 | – | –
3 | – | – | CC(C)(NCc1ccc(Oc2ccc(F)cc2F)cc1)C(N)=O [2,4-difluorophenoxy, 2-(4-(2,4-Difluorophenoxy)benzylamino)-2-methylpropanamide] | 8/8 | – | –
4 | 103 to 106 | – | CC(C)(NCc1ccc(Oc2ccc(F)cc2)cc1)C(N)=O [4-fluorophenoxy, 2-(4-(4-Fluorophenoxy)benzylamino)-2-methylpropanamide] | 8/8 | – | –
5 | – | ~1200 | CC(C)(NCc1ccc(OCc2ccccc2F)cc1)C(N)=O [2-(4-(2-Fluorobenzyloxy)benzylamino)-2-methyl-propanamide] | – | dose-dependent inhibition | very little effect
